Test results as given in EPA's ToxRefDB 2.

Experiments:
rat [1] = settings: Combined chronic toxicity/carcinogenicity; fischer; Oral; Gavage/Intubation; dose end: 103 week; group: systemic; systemic / in life observation / clinical signs / lethargy + systemic / pathology microscopic / stomach / inflammation + systemic / …
mouse [2] = settings: Subchronic oral toxicity in rodents, b6c3f1, Gavage/Intubation, dose end: 13 week, group: systemic
rat [3] = settings: Subchronic oral toxicity in rodents, fischer, Gavage/Intubation, dose end: 13 week, group: systemic
mouse [4] = settings: Sub-acute repeat dose toxicity, b6c3f1, Oral, Gavage/Intubation, dose end: 16 day, group: systemic
mouse [5] = settings: Carcinogenicity, b6c3f1, Oral, Gavage/Intubation, dose end: 103 week, group: systemic
rat [6] = settings: Multigenerational reproductive toxicity study, sprague dawley, Oral, Feed, dose end: 2 generation
rat [7] = settings: Sub-acute repeat dose toxicity; fischer; Oral; Gavage/Intubation; dose end: 16 day; group: systemic; systemic / in life observation / body weight / body weight gain
rat [8] = settings: Carcinogenicity; other; Oral; Feed; dose end: 80 week; group: systemic; systemic / in life observation / body weight / body weight + systemic / in life observation / clinical signs / anemia + systemic / in life …
rat [9] = settings: Developmental neurotoxicity study; fischer; Injection; Subcutaneous; dose end: 21 PND; group: cannot be grouped; systemic / in life observation / body weight / offspring (pup) weight + systemic / in life observation / clinical signs / tremors
rat [10] = settings: Subchronic oral toxicity in rodents, other, Feed, dose end: 13 week
rat [11] = settings: Developmental neurotoxicity study; fischer; Oral; Feed; dose end: 114 PND; group: cannot be grouped; systemic / in life observation / body weight / offspring (pup) weight
mouse [12] = settings: Carcinogenicity, b6c3f1, Oral, Feed, dose end: 80 week, group: systemic
[13] = systemic / in life observation / clinical signs / fur (altered appearance) + systemic / in life observation / clinical signs / lethargy
[14] = systemic / in life observation / clinical signs / fur (altered appearance) + systemic / in life observation / clinical signs / lethargy + …
[15] = systemic / organ weight / liver / absolute + systemic / organ weight / liver / relative to body weight
[16] = systemic / in life observation / clinical signs / lethargy + systemic / in life observation / mortality / mortality
[17] = systemic / in life observation / clinical signs / lethargy + systemic / in life observation / body weight / body weight
[18] = systemic / in life observation / clinical signs / lethargy + systemic / in life observation / body weight / body weight + systemic / …
[19] = group: offspring, systemic / in life observation / body weight / offspring (pup) weight
[20] = group: parental, systemic / in life observation / body weight / body weight + systemic / in life observation / body weight / body weight gain + systemic / …
[21] = group: parental, systemic / organ weight / kidney / relative to body weight
[22] = group: maternal, reproductive / reproductive performance / mating / mating
[23] = group: systemic, systemic / organ weight / kidney / absolute + systemic / organ weight / kidney / relative to body weight + systemic / organ weight / liver…
[24] = systemic / pathology microscopic / liver / hyperplasia
[25] = systemic / pathology microscopic / liver / hyperplasia + systemic / pathology microscopic / liver / hepatocellular carcinoma + systemic / in…

SMILES: S=c1[nH]c2ccccc2s1 [2-Mercaptobenzothiazole]
- LEL (rat [1]): 188 mg/kg/day
- LOAEL (rat [1]): 188 mg/kg/day
- NEL (rat [1]): < 188 mg/kg/day
- NOAEL (rat [1]): < 188 mg/kg/day
- LEL (mouse [2]; [13]): 375 mg/kg/day
- LOAEL (mouse [2]; [13]): 375 mg/kg/day
- NEL (mouse [2]; [14]): 188 mg/kg/day
- NOAEL (mouse [2]; [14]): 188 mg/kg/day
- LOAEL (rat [3]; systemic / in life observation / body weight / body weight gain + systemic / in life observation / clinical signs / irritability): 750 mg/kg/day
- LEL (rat [3]; [15]): 188 mg/kg/day
- NEL (rat [3]; [15]): < 188 mg/kg/day
- NOAEL (rat [3]; systemic / organ weight / liver / absolute + systemic / organ weight / liver / relative to body weight + systemic / in life observation / …): 375 mg/kg/day
- LOAEL (mouse [4]; systemic / in life observation / clinical signs / lethargy): 1500 mg/kg/day
- LEL (mouse [4]; [16]): 1500 mg/kg/day
- NEL (mouse [4]; [16]): 750 mg/kg/day
- NOAEL (mouse [4]; [16]): 750 mg/kg/day
- LOAEL (mouse [5]; [17]): 375 mg/kg/day
- NOAEL (mouse [5]; [17]): < 375 mg/kg/day
- LEL (mouse [5]; [18]): 375 mg/kg/day
- NEL (mouse [5]; [18]): < 375 mg/kg/day
- LEL (rat [6]; [19]): 194 mg/kg/day
- LOAEL (rat [6]; [19]): 194 mg/kg/day
- NEL (rat [6]; [19]): < 194 mg/kg/day
- NOAEL (rat [6]; [19]): < 194 mg/kg/day
- LOAEL (rat [6]; [20]): 695 mg/kg/day
- NOAEL (rat [6]; [20]): 194 mg/kg/day
- LEL (rat [6]; [21]): 218 mg/kg/day
- NEL (rat [6]; [21]): < 218 mg/kg/day
- LEL (rat [7]): 2500 mg/kg/day
- LOAEL (rat [7]): > 2500 mg/kg/day
- NEL (rat [7]): 1250 mg/kg/day
- NOAEL (rat [7]): ≥ 2500 mg/kg/day

SMILES: O=C1C2(Cl)C3(Cl)C4(Cl)C(Cl)(Cl)C5(Cl)C3(Cl)C1(Cl)C5(Cl)C24Cl (stereo unspecified) [Kepone]
- LEL (rat [8]): 0.4 mg/kg/day
- LOAEL (rat [8]): 0.4 mg/kg/day
- NEL (rat [8]): < 0.4 mg/kg/day
- NOAEL (rat [8]): < 0.4 mg/kg/day
- LEL (rat [9]): 1 mg/kg/day
- LOAEL (rat [9]): > 1 mg/kg/day
- NEL (rat [9]): < 1 mg/kg/day
- NOAEL (rat [9]): ≥ 1 mg/kg/day
- LEL (rat [10]; [22]): 1.25 mg/kg/day
- LOAEL (rat [10]; [22]): > 1.25 mg/kg/day
- NEL (rat [10]; [22]): < 1.25 mg/kg/day
- NOAEL (rat [10]; [22]): ≥ 1.25 mg/kg/day
- LEL (rat [10]; [23]): 1.25 mg/kg/day
- LOAEL (rat [10]; [23]): > 1.25 mg/kg/day
- NEL (rat [10]; [23]): < 1.25 mg/kg/day
- NOAEL (rat [10]; [23]): ≥ 1.25 mg/kg/day
- LEL (rat [11]): 0.05 mg/kg/day
- LOAEL (rat [11]): > 0.3 mg/kg/day
- NEL (rat [11]): < 0.05 mg/kg/day
- NOAEL (rat [11]): ≥ 0.3 mg/kg/day
- LOAEL (mouse [12]; [24]): 3 mg/kg/day
- NOAEL (mouse [12]; [24]): < 3 mg/kg/day
- LEL (mouse [12]; [25]): 3 mg/kg/day
- NEL (mouse [12]; [25]): < 3 mg/kg/day
